The text below walks through data of publication PMC5431190, “Investigation of cationicity and structure of pseudin-2 analogues for enhanced bacterial selectivity and anti-inflammatory activity” (Scientific Reports, 2017).

≈ marks a conversion by molar mass, not a printed value. Where two headings read alike, the source gives them in different places. Residues, ends and D or L forms follow the SMILES beside them.

For data set [1], the system named is Acinetobacter baumannii CCARM 12035 (MDRAB 12035). Format: cell-based. To be noted: multidrug-resistant strain; 1% peptone media, 16 h at 37 °C. An excerpt:
(§1) Four Gram-negative bacteria species (Escherichia coli KCTC 1682, Acinetobacter baumannii KCTC 2508, Pseudomonas aeruginosa KCTC 1637 and Salmonella typhimurium KCTC 1926) and three Gram-positive bacteria species (Staphylococcus aureus KCTC 1621, Bacillus subtilis KCTC 3028 and Staphylococcus epidermidis KCTC 1917) were procured from the Korean Collection for Type Cultures (KCTC). Multi-drug-resistant Gram-negative bacteria (Salmonella typhimurium CCARM 8003 and 8007, Escherichia coli CCARM 1229 and 1238, Pseudomonas aeruginosa CCARM 2002 and 2095 and Acinetobacter baumannii CCARM 12035 and 12036) were obtained from the Culture Collection of Antibiotic-Resistant Microbes (CCARM). To determine MICs, bacteria were cultured in Luria-Bertani (LB) medium for overnight at 37 °C. An aliquot of the culture was incubated in 1% peptone media at 37 °C until mid-log phase. 100 μl of serial 2-fold diluted peptides were treated in 96 well plates and added to 100 μl of 2 × 10^6 CFU/ml bacterial suspensions in 1% peptone media for 16 h at 37 °C.

Data set [2] concerns Acinetobacter baumannii CCARM 12036 (MDRAB 12036). Format: cell-based. To be noted: multidrug-resistant strain; 1% peptone media, 16 h at 37 °C.
Source text: as §1

The subject of data set [3] is Acinetobacter baumannii KCTC 2508. Format: cell-based.
Source text: as §1

For data set [4], the system named is Bacillus subtilis KCTC 3028. Format: cell-based.
Source text: as §1

The test system of data set [5] is Escherichia coli CCARM 1229 (MDREC 1229). Format: cell-based. To be noted: multidrug-resistant strain; 1% peptone media, 16 h at 37 °C.
Source text: as §1

Data set [6] deals with Escherichia coli CCARM 1238 (MDREC 1238). Format: cell-based. To be noted: multidrug-resistant strain; 1% peptone media, 16 h at 37 °C.
Source text: as §1

The subject of data set [7] is Escherichia coli KCTC 1682. Format: cell-based.
Source text: as §1

Data set [8] concerns Gram-negative bacteria (E. coli, A. baumannii, P. aeruginosa, S. typhimurium). Format: cell-based.
Source text: as §1

Data set [9] has as its system Gram-positive bacteria (S. aureus, B. subtilis, S. epidermidis). Format: cell-based.
Source text: as §1

In data set [10] the test system is Pseudomonas aeruginosa CCARM 2002 (MDRPA 2002). Format: cell-based. The note with it: multidrug-resistant strain; 1% peptone media, 16 h at 37 °C.
Source text: as §1

The subject of data set [11] is Pseudomonas aeruginosa CCARM 2095 (MDRPA 2095). Format: cell-based. To be noted: multidrug-resistant strain; 1% peptone media, 16 h at 37 °C.
Source text: as §1

Data set [12] relates to Pseudomonas aeruginosa KCTC 1637. Format: cell-based.
Source text: as §1

For data set [13], the system named is Salmonella typhimurium CCARM 8003 (MDRST 8003). Format: cell-based. To be noted: multidrug-resistant strain; 1% peptone media, 16 h at 37 °C.
Source text: as §1

The test system of data set [14] is Salmonella typhimurium CCARM 8007 (MDRST 8007). Format: cell-based. The note with it: multidrug-resistant strain; 1% peptone media, 16 h at 37 °C.
Source text: as §1

Data set [15] concerns Salmonella typhimurium KCTC 1926. Format: cell-based.
Source text: as §1

In data set [16] the test system is Staphylococcus aureus KCTC 1621. Format: cell-based.
Source text: as §1

In data set [17] the test system is Staphylococcus epidermidis KCTC 1917. Format: cell-based.
Source text: as §1

For data set [18], the system named is human red blood cells (hRBCs). The data set can be described thus: Haemolytic activity. Format: cell-based. How it is done:
Peptide-induced lysis of human red blood cells (hRBCs) was determined as follows. Fresh hRBCs were washed 2–3 times with phosphate-buffered saline (PBS) by centrifugation for 5 min at 2500 rpm at 4 °C. Peptides in PBS were incubated with 4% (v/v) hRBCs for 1 h at 37 °C. Samples were then centrifuged for 5 min at 1000 × g. The absorbance of the supernatant at 405 nm was used as a measure of haemolysis. As a positive control, 100% haemolysis was obtained by treating hRBCs with 0.1% Triton X-100.

Data set [19] has as its system S. aureus 3089(R) (MRSA 3089). Format: cell-based, Staphylococcus aureus. To be noted: multidrug-resistant strain; 1% peptone media, 16 h at 37 °C.
Data set [20] deals with S. aureus 3108(R) (MRSA 3108). Format: cell-based, Staphylococcus aureus. To be noted: multidrug-resistant strain; 1% peptone media, 16 h at 37 °C.
Data set [21] relates to S. aureus 3126(R) (MRSA 3126). Format: cell-based, Staphylococcus aureus. The note with it: multidrug-resistant strain; 1% peptone media, 16 h at 37 °C.

Turning to `CC[C@H](C)[C@H](NC(=O)[C@H](C)NC(=O)[C@H](CCC(=O)O)NC(=O)[C@H](Cc1c[nH]cn1)NC(=O)[C@@H](NC(=O)[C@@H]1CCCN1C(=O)[C@H](CCC(N)=O)NC(=O)[C@H](Cc1ccccc1)NC(=O)[C@@H](NC(=O)[C@H](CCCCN)NC(=O)[C@H](CCCCN)NC(=O)[C@H](CC(C)C)NC(=O)[C@H](C)NC(=O)[C@H](CC(N)=O)NC(=O)[C@H](CC(C)C)NC(=O)CN)C(C)C)[C@@H](C)CC)C(=O)N[C@@H](CCCCN)C(=O)N[C@@H](CCCCN)C(=O)N[C@H](C(=O)N[C@@H](CC(N)=O)C(=O)N[C@@H](CC(N)=O)C(=O)N[C@@H](Cc1c[nH]cn1)C(=O)N[C@H](C(=O)N[C@@H](CCC(N)=O)C(=O)O)C(C)C)[C@@H](C)CC` [Ps-K18-P] (H-GLNALKKVFQPIHEAIKKINNHVQ-OH), the “MIC, MDRAB 12035” value in data set [1] turned out to be 16 µM (≈ 43.8 µg/mL). Moreover, the “MIC, MDRAB 12036” value in [2] was determined as 16 µM (≈ 43.8 µg/mL). Also, in data set [3] (standard strain KCTC 2508, 1% peptone media, 16 h at 37 °C, three independent experiments in triplicate, SD 14.0%), the “MIC, A. baumannii” value was found to be 16 µM (≈ 43.8 µg/mL). Besides, the “MIC, B. subtilis” value in data set [4] (standard strain KCTC 3028, 1% peptone media, 16 h at 37 °C, three independent experiments in triplicate, SD 14.0%) was found to be 64 µM (≈ 175 µg/mL). The “MIC, MDREC 1229” value in [5] stood at 32 µM (≈ 87.7 µg/mL). For the same compound, the “MIC, MDREC 1238” value in data set [6] is 16 µM (≈ 43.8 µg/mL). In data set [7] (standard strain KCTC 1682, 2-fold dilutions, 1% peptone media, 2 × 10^6 CFU/ml suspension, 16 h at 37 °C, three independent experiments in triplicate, SD 14.0%), the “MIC, E. coli” value was 16 µM (≈ 43.8 µg/mL). For the same compound, in [8] (average over the four Gram-negative standard strains), the “Average MIC, Gram-negative” value amounted to 14 µM. Besides, the “Average MIC, Gram-positive” value in data set [9] (average over the three Gram-positive standard strains) came out at 64 µM. The “MIC, MDRPA 2002” value in data set [10] stood at 16 µM (≈ 43.8 µg/mL). Moreover, in data set [11], the “MIC, MDRPA 2095” value is 16 µM (≈ 43.8 µg/mL). Besides, in data set [12] (standard strain KCTC 1637, 1% peptone media, 16 h at 37 °C, three independent experiments in triplicate, SD 14.0%), the “MIC, P. aeruginosa” value is 8 µM (≈ 21.9 µg/mL). Also, the “MIC, MDRST 8003” value in [13] amounted to 16 µM (≈ 43.8 µg/mL). For the same compound, the “MIC, MDRST 8007” value in data set [14] worked out at 16 µM (≈ 43.8 µg/mL). Further, the “MIC, S. typhimurium” value in data set [15] (standard strain KCTC 1926, 1% peptone media, 16 h at 37 °C, three independent experiments in triplicate, SD 14.0%) was 16 µM (≈ 43.8 µg/mL). Further, in data set [16] (standard strain KCTC 1621, 1% peptone media, 16 h at 37 °C, three independent experiments in triplicate, SD 14.0%), the “MIC, S. aureus” value stood at 64 µM (≈ 175 µg/mL). Moreover, the “MIC, S. epidermidis” value in data set [17] (standard strain KCTC 1917, 1% peptone media, 16 h at 37 °C, three independent experiments in triplicate, SD 14.0%) was determined as 64 µM (≈ 175 µg/mL). In addition, the “haemolysis at 400 μM” value in data set [18] (400 μM peptide, 4% hRBCs, PBS, 1 h at 37 °C, 100% = 0.1% Triton X-100) is on record as 0.1%. Also, the “MHC (minimal peptide concentration that produces haemolysis)” value in data set [18] (4% (v/v) hRBCs in PBS, 1 h at 37 °C, absorbance 405 nm, printed in both Gram-negative and Gram-positive sections) is 400 µM. Further, the “MIC, MRSA 3089” value in [19] came to 64 µM (≈ 175 µg/mL). Besides, in data set [20], the “MIC, MRSA 3108” value is 64 µM (≈ 175 µg/mL). Moreover, in data set [21], the “MIC, MRSA 3126” value was over 64 µM.

In the case of `CC[C@H](C)[C@H](NC(=O)CNC(=O)[C@H](CCC(N)=O)NC(=O)[C@H](Cc1ccccc1)NC(=O)[C@@H](NC(=O)[C@H](CCCCN)NC(=O)[C@H](CCCCN)NC(=O)[C@H](CC(C)C)NC(=O)[C@H](C)NC(=O)[C@H](CC(N)=O)NC(=O)[C@H](CC(C)C)NC(=O)CN)C(C)C)C(=O)N[C@@H](Cc1c[nH]cn1)C(=O)N[C@@H](CCC(=O)O)C(=O)N[C@@H](C)C(=O)N[C@H](C(=O)N[C@@H](CCCCN)C(=O)N[C@@H](CCCCN)C(=O)N[C@H](C(=O)N[C@@H](CC(N)=O)C(=O)N[C@@H](CC(N)=O)C(=O)N[C@@H](Cc1c[nH]cn1)C(=O)N[C@H](C(=O)N[C@@H](CCC(N)=O)C(=O)O)C(C)C)[C@@H](C)CC)[C@@H](C)CC` [Ps-K18] (H-GLNALKKVFQGIHEAIKKINNHVQ-OH), the “MIC, MDRAB 12035” value in data set [1] turned out to be 4 µM (≈ 10.8 µg/mL). For the same compound, in data set [2], the “MIC, MDRAB 12036” value worked out at 4 µM (≈ 10.8 µg/mL). The “MIC, A. baumannii” value in data set [3] (KCTC 2508, 16 h) was 2 µM (≈ 5.4 µg/mL). The “MIC, B. subtilis” value in [4] (KCTC 3028, 16 h) turned out to be 8 µM (≈ 21.6 µg/mL). In data set [5], the “MIC, MDREC 1229” value was found to be 4 µM (≈ 10.8 µg/mL). Moreover, the “MIC, MDREC 1238” value in [6] was found to be 2 µM (≈ 5.4 µg/mL). In addition, the “MIC, E. coli” value in data set [7] (KCTC 1682, 16 h) amounted to 2 µM (≈ 5.4 µg/mL). Besides, the “Average MIC, Gram-negative” value in data set [8] (16 h) was found to be 2.5 µM. Also, the “Average MIC, Gram-positive” value in [9] (16 h) amounted to 10.67 µM. Besides, in [10], the “MIC, MDRPA 2002” value worked out at 2 µM (≈ 5.4 µg/mL). Further, the “MIC, MDRPA 2095” value in data set [11] was determined as 2 µM (≈ 5.4 µg/mL). Besides, in data set [12] (KCTC 1637, 16 h), the “MIC, P. aeruginosa” value was 2 µM (≈ 5.4 µg/mL). Moreover, in data set [13], the “MIC, MDRST 8003” value was found to be 4 µM (≈ 10.8 µg/mL). The “MIC, MDRST 8007” value in [14] was 4 µM (≈ 10.8 µg/mL). For the same compound, the “MIC, S. typhimurium” value in data set [15] (KCTC 1926, 16 h) was 4 µM (≈ 10.8 µg/mL). In data set [16] (KCTC 1621, 16 h), the “MIC, S. aureus” value amounted to 16 µM (≈ 43.2 µg/mL). For the same compound, the “MIC, S. epidermidis” value in [17] (KCTC 1917, 16 h) was found to be 8 µM (≈ 21.6 µg/mL). In [18] (red cells of human, 1 h), the “MHC (minimal peptide concentration that produces haemolysis)” value was found to be 100 µM. For the same compound, the “haemolysis at 100 μM” value in data set [18] (red cells of human, 1 h, 100) was 0.5%. Moreover, the “MIC, MRSA 3089” value in data set [19] amounted to 16 µM (≈ 43.2 µg/mL). In addition, the “MIC, MRSA 3108” value in [20] is 32 µM (≈ 86.4 µg/mL). Further, in [21], the “MIC, MRSA 3126” value worked out at 16 µM (≈ 43.2 µg/mL).
